Measurements reported in the NIST ThermoML archive (doi:10.1021/je400214b).
Numbers after ± are expanded uncertainties.

Key:
[1] = refractive index (Na D-line) (dimensionless); conditions: 293.15 K; 101.33 kPa; Liquid; Standard Abbe refractometry
[2] = Liquid; for mass density: 293.15 K, 101.33 kPa, Vibrating tube method; for vapor or sublimation pressure: Ebulliometric method (Recirculating still)

Row | Structure (SMILES) | refractive index [1] | mass density [2] | vapor or sublimation pressure ([2]; 483.15 K) | vapor or sublimation pressure ([2]; 351.15 K) | vapor or sublimation pressure ([2]; 449.15 K) | vapor or sublimation pressure ([2]; 350.15 K)
1 | O=[N+]([O-])c1ccccc1 [nitrobenzene] | 1.5529 ± 0.0007 | 1198.8 ± 0.2 kg/m3 | 96.5 ± 9.7 kPa | – | – | –
2 | CCO [ethanol] | 1.361 ± 0.0007 | 788.9 ± 0.2 kg/m3 | – | 96.5 ± 9.7 kPa | – | –
3 | CCCCCCCO [heptan-1-ol] | – | – | – | – | 96.5 ± 9.7 kPa | –
4 | C=CC#N [acrylonitrile] | 1.3909 ± 0.0007 | 806 ± 0.2 kg/m3 | – | – | – | 96.5 ± 9.7 kPa
